According to patent publication US20250011348A1, “Synthesis Process of X-IPM, Stable Crystal Form and Application Thereof” (ASCENTAWITS PHARMACEUTICALS, LTD., priority 2023, published 2025):
Like-named read-outs stand apart in the source and are kept apart here.

Protocol: On different days, samples were taken at the same time for analysis and detection of related substances, and their contents were recorded.

Substance: isophosphoramide nitrogen mustard [Br-IPM]
- Stability of the Br-IPM crystals on storage (in words) (placed at 40° C.): unstable
- Br-IPM content in the analysis of related substances (stored at 2-8° C., day 0): 93.23%
- Br-IPM content in the analysis of related substances (stored at 2-8° C., day 3): 93.28%
- Br-IPM content in the analysis of related substances (stored at 2-8° C., day 4): 95.06%
- Br-IPM content in the analysis of related substances (stored at 2-8° C., day 5): 94.29%
- Br-IPM content in the analysis of related substances (stored at 2-8° C., day 6): 94.56%
- Br-IPM content in the analysis of related substances (stored at 2-8° C., day 7): 95.57%
- Br-IPM content in the analysis of related substances (stored at 2-8° C., day 10): 95.17%
- Br-IPM content in the analysis of related substances (stored at 2-8° C., day 11): 95.07%
- Br-IPM content in the analysis of related substances (stored at 2-8° C., day 12): 95.07%
- Br-IPM content in the analysis of related substances (stored at 2-8° C., day 13): 95.44%
- Br-IPM content in the analysis of related substances (stored at 2-8° C., day 14): 95.25%
- Br-IPM content in the analysis of related substances (stored at 2-8° C., day 17): 95.76%
- Br-IPM content in the analysis of related substances (stored at 2-8° C., day 21): 95.19%
- Br-IPM content in the analysis of related substances (stored at 2-8° C., day 28): 96.22%
- Br-IPM content in the analysis of related substances (stored at 2-8° C., day 35): 95.09%
- Time for which the Br-IPM crystals are relatively stable / can be stored (stored at 25° C. (room temperature)): 28 days
- Br-IPM content in the analysis of related substances (stored at 25° C., day 0): 93.23%
- Br-IPM content in the analysis of related substances (stored at 25° C., day 3): 94.17%
- Br-IPM content in the analysis of related substances (stored at 25° C., day 4): 94.89%
- Br-IPM content in the analysis of related substances (stored at 25° C., day 5): 94.53%
- Br-IPM content in the analysis of related substances (stored at 25° C., day 6): 94.32%
- Br-IPM content in the analysis of related substances (stored at 25° C., day 7): 93.86%
- Br-IPM content in the analysis of related substances (stored at 25° C., day 10): 94.64%
- Br-IPM content in the analysis of related substances (stored at 25° C., day 11): 95.25%
- Br-IPM content in the analysis of related substances (stored at 25° C., day 12): 94.97%
- Br-IPM content in the analysis of related substances (stored at 25° C., day 13): 95.28%
- Br-IPM content in the analysis of related substances (stored at 25° C., day 14): 94.61%
- Br-IPM content in the analysis of related substances (stored at 25° C., day 17): 94.75%
- Br-IPM content in the analysis of related substances (stored at 25° C., day 21): 93.81%
- Br-IPM content in the analysis of related substances (stored at 25° C., day 28): 94.01%
- Br-IPM content in the analysis of related substances (stored at 25° C., day 35): 91.42%
- Br-IPM content in the analysis of related substances (stored at 40° C., day 0): 93.23%
- Br-IPM content in the analysis of related substances (stored at 40° C., day 3): 86.36%
- Br-IPM content in the analysis of related substances (stored at −5° C., day 0): 93.23%
- Br-IPM content in the analysis of related substances (stored at −5° C., day 3): 94.65%
- Br-IPM content in the analysis of related substances (stored at −5° C., day 4): 95.12%
- Br-IPM content in the analysis of related substances (stored at −5° C., day 5): 94.07%
- Br-IPM content in the analysis of related substances (stored at −5° C., day 6): 95.48%
- Br-IPM content in the analysis of related substances (stored at −5° C., day 7): 94.96%
- Br-IPM content in the analysis of related substances (stored at −5° C., day 10): 95.03%
- Br-IPM content in the analysis of related substances (stored at −5° C., day 11): 95.50%
- Br-IPM content in the analysis of related substances (stored at −5° C., day 12): 95.04%
- Br-IPM content in the analysis of related substances (stored at −5° C., day 13): 95.23%
- Br-IPM content in the analysis of related substances (stored at −5° C., day 14): 95.28%
- Br-IPM content in the analysis of related substances (stored at −5° C., day 17): 95.07%
- Br-IPM content in the analysis of related substances (stored at −5° C., day 21): 95.30%
- Br-IPM content in the analysis of related substances (stored at −5° C., day 28): 94.83%
- Br-IPM content in the analysis of related substances (stored at −5° C., day 35): 94.64%
